Assay results published in patent publication US11566007B2, “Ras inhibitors” (Revolution Medicines, Inc., priority 2019, dated 2023).
Where two headings read alike, the source gives them in different places.

How the values were obtained:
NCI-H358 (K-Ras G12C) = assay: CellTiter-Glo cell viability assay, NCI-H358; assay type: cell-based, human; conditions: NCI-H358, 5-day treatment, class symbols, read-out: Additional H358 Cell Viability assay data (K-Ras G12C, IC50)
Protocol: Note—The following protocol describes a procedure for monitoring cell viability of K-Ras mutant cancer cell lines in response to a compound of the invention. Other RAS isoforms may be employed, though the number of cells to be seeded will vary based on cell line used.
Test compounds (132.5 nL) were directly dispensed into the assay plates containing cells. […] On day 5, assay plates and their contents were equilibrated to room temperature for approximately 30 minutes. […] Luminescence was measured using the PerkinElmer Enspire. Data were normalized by the following: (Sample signal/Avg. DMSO)*100. The data were fit using a four-parameter logistic fit.

[1] = test system: NCI-H358 cells (K-Ras G12C); assay: Potency assay: pERK in NCI-H358 cells; assay type: cell-based, human; conditions: H358 KRAS G12C, read-out: pERK EC50
Protocol: The purpose of this assay is to measure the ability of test compounds to inhibit K-Ras in cells. […] This procedure measures a decrease in cellular pERK in response to test compounds.
NCI-H358 cells were grown and maintained using media and procedures recommended by the ATCC. On the day prior to compound addition, cells were plated in 384-well cell culture plates (40 μl/well) and grown overnight in a 37° C., 5% CO2 incubator. Test compounds were prepared in 10, 3-fold dilutions in DMSO, with a high concentration of 10 mM. On the day of assay, 40 nL of test compound was added to each well of cell culture plate using an Echo550 liquid handler (LabCyte®). Concentrations of test compound were tested in duplicate. After compound addition, cells were incubated 4 hours at 37° C., 5% CO2. Following incubation, culture medium was removed and cells were washed once with phosphate buffered saline.
In some experiments, cellular pERK level was determined using the AlphaLISA SureFire Ultra p-ERK1/2 Assay Kit (PerkinElmer). Cells were lysed in 25 μL lysis buffer, with shaking at 600 RPM at room temperature. […] After a 2-hour incubation in the dark, 5 μL donor mix was added, plate was sealed, and incubated 2 hours at room temperature. Signal was read on an Envision plate reader (PerkinElmer) using standard AlphaLISA settings. Analysis of raw data was carried out in Excel (Microsoft) and Prism (GraphPad). Signal was plotted vs. the decadal logarithm of compound concentration, and IC50 was determined by fitting a 4-parameter sigmoidal concentration response model.
In other experiments, cellular pERK was determined by In-Cell Western. […] Fixed cells were washed 4 times for 5 minutes with TBS containing 0.1% Triton X-100 (TBST) and then blocked with 100 μL Odyssey blocking buffer (LI-COR) for 60 minutes at room temperature. […] Cells were washed 4 times for 5 minutes with TBST. Secondary antibody (IR-800CW rabbit, LI-COR, diluted 1:800) and DNA stain DRAQS (LI-COR, diluted 1:2000) were added and incubated 1-2 hours at room temperature. Cells were washed 4 times for 5 minutes with TBST. Plates were scanned on a Li-COR Odyssey CLx Imager. Analysis of raw data was carried out in Excel (Microsoft) and Prism (Graph Pad). Signal was plotted vs. the decadal logarithm of compound concentration, and IC50 was determined by fitting a 4-parameter sigmoidal concentration response model.

KRAS G12D = KRAS G12D (Homo sapiens (Human), UniProt P01116+P62937, G12D); assay: Ras-Raf (BRAF RBD) disruption / FRET / MOA assay, KRAS G12D; assay type: biochemical; conditions: Ras-Raf disruption/FRET/MOA assay; class symbols; read-out: KRAS G12D FRET data IC50
How it was run: (§1)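 A 10-point, 3-fold dilution series topping at 30 μM final was incubated 3 h at 25° C with the Ras/cyclophilin A/BRAF RBD mixture.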

KRAS G12S = KRAS G12S (Homo sapiens (Human), UniProt P01116+P62937, G12S); assay: Ras-Raf (BRAF RBD) disruption / FRET / MOA assay, KRAS G12S; assay type: biochemical; conditions: Ras-Raf disruption/FRET/MOA assay; class symbols; read-out: KRAS G12S FRET data IC50
How it was run: as §1

Chain of KRAS G12D (P01116-2 other isoform, or with tags, fused parts or gaps G12D): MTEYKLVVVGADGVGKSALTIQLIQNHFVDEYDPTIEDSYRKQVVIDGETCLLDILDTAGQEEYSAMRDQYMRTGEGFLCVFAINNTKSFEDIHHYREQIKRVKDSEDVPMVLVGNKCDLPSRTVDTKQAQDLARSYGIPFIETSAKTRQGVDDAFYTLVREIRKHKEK
Chain of KRAS G12D (P62937 whole entry): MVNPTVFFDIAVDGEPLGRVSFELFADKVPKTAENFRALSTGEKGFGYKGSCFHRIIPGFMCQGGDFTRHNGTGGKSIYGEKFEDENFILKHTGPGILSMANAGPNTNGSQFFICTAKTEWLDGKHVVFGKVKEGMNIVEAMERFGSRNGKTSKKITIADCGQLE
Chain of KRAS G12S (P01116-2 other isoform, or with tags, fused parts or gaps G12S): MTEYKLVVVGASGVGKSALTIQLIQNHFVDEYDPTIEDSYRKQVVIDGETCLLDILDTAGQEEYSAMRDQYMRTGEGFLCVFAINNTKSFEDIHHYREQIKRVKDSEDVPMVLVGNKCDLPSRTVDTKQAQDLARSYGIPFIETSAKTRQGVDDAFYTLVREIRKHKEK
Chain of KRAS G12S (P62937 whole entry): as the sequence (P62937 whole entry) above

SMILES	IC50 (NCI-H358 (K-Ras G12C); Homo sapiens, NCI-H358, 120 h) [nM]	EC50 ([1]; Homo sapiens, NCI-H358) [nM]	further results
C=CC(=O)N1CC[C@H](C(=O)N(C)[C@H](C(=O)N[C@H]2Cc3cccc(c3)-c3ccc4c(c3)c(c(-c3ccccc3CCOC)n4CC)CC(C)(C)COC(=O)[C@@H]3CCCN(N3)C2=O)C(C)C)C1 (atropisomer, axis not shown) [Example A24]	> 1000	< 5000	–
C=CC(=O)N1CC[C@H](C(=O)N(C)[C@H](C(=O)N[C@H]2Cc3cc(O)cc(c3)-c3cc(F)c4c(c3)c(c(-c3ccccc3CCOC)n4CC)CC(C)(C)COC(=O)[C@@H]3CCCN(N3)C2=O)C(C)C)C1 (atropisomer, axis not shown) [Example A53]	100 to 1000	< 5000	–
CC#CC(=O)N1CC[C@H](C(=O)N(C)[C@@H](C(=O)N[C@H]2Cc3cc(O)cc(c3)-c3ccc4c(c3)c(c(-c3cccnc3[C@H](C)OC)n4CC)CC(C)(C)COC(=O)[C@@H]3CCCN(N3)C2=O)C(C)C)C1 (atropisomer, axis not shown) [Example A199]	–	–	IC50 (NCI-H358 (K-Ras G12C)): 100 to 1000 nM; EC50 [1]: < 5000 nM
C=CC(=O)N1CC[C@H](C(=O)N(C)[C@H](C(=O)N[C@H]2Cc3cc(O)cc(c3)-c3ccc4c(c3)c(c(-c3cccnc3[C@H](C)OC)n4CC)CC(C)(C)COC(=O)[C@@H]3CCCN(N3)C2=O)C(C)C)C1 (atropisomer, axis not shown; (M)) [Example A75, (2S)-N-[(8S,14S,20M)-22-ethyl-4-hydroxy-21-{2-[(1S)-1-methoxyethyl]pyridin-3-yl}-18,18-dimethyl-9,15-dioxo-16-oxa-10,22,28-triazapentacyclo[18.5.2.1^2,^6.1^10,^14.0^23,^27]nonacosa-1(26),2,4,6(29),20,23(27),24-heptaen-8-yl]-3-methyl-2-{N-methyl-1-[(3S)-1-(prop-2-enoyl)pyrrolidin-3-yl]formamido}butanamide]	10 to 100	< 5000	IC50 (NCI-H358 (K-Ras G12C)): < 10 nM
C=CC(=O)N1CC[C@H](C(=O)N(C)[C@H](C(=O)N[C@H]2Cc3cc(O)cc(c3)-c3ccc4c(c3)c(c(-c3ccc(CN5CC[C@@H](O)C5)cc3)n4CC)CC(C)(C)COC(=O)[C@@H]3CCCN(N3)C2=O)C(C)C)C1 [Example A1]	100 to 1000	< 5000	–
C=CC(=O)N1CC[C@H](C(=O)N(C)[C@H](C(=O)N[C@H]2Cc3cc(N)cc(c3)-c3ccc4c(c3)c(c(-c3ccccc3CCOC)n4CC)CC(C)(C)COC(=O)[C@@H]3CCCN(N3)C2=O)C(C)C)C1 [Example A2, (2S)-N-[(8S,14S)-4-amino-22-ethyl-21-[2-(2-methoxyethyl)phenyl]-18,18-dimethyl-9,15-dioxo-16-oxa-10,22,28-triazapentacyclo[18.5.2.1^2,^6.1^10,^14.0^23,^27]nonacosa-1(26),2,4,6(29),20,23(27),24-heptaen-8-yl]-3-methyl-2-{N-methyl-1-[(3S)-1-(prop-2-enoyl)pyrrolidin-3-yl]formamido}butanamide]	> 1000	< 5000	–
C=CC(=O)N1CC[C@H](C(=O)N(C)[C@H](C(=O)N[C@H]2Cc3cc(O)cc(c3)-c3ccc4c(c3)c(c(-c3ccc(CN(C)C)cc3)n4CC)CC(C)(C)COC(=O)[C@@H]3CCCN(N3)C2=O)C(C)C)C1 [Example A3]	100 to 1000	< 5000	–
C=CC(=O)N1CC[C@H](C(=O)N(C)[C@H](C(=O)N[C@H]2Cc3cc(O)cc(c3)-c3ccc4c(c3)c(c(-c3ccccc3CN(C)C)n4CC)CC(C)(C)COC(=O)[C@@H]3CCCN(N3)C2=O)C(C)C)C1 [Example A5]	10 to 100	< 5000	–
C=CC(=O)N1CC[C@H](C(=O)N(C)[C@H](C(=O)N[C@H]2Cc3cc(O)cc(c3)-c3ccc4c(c3)c(c(-c3ccccc3CCOC)n4CC)CC(C)(C)COC(=O)[C@@H]3CCCN(N3)C2=O)C2CCOCC2)C1 [Example A6]	100 to 1000	< 5000	–
C=CC(=O)N1CC[C@H](C(=O)N(C)[C@H](C(=O)N[C@H]2Cc3cc(OC(=O)CCN4CCN(C)CC4)cc(c3)-c3ccc4c(c3)c(c(-c3ccccc3CCOC)n4CC)CC(C)(C)COC(=O)[C@@H]3CCCN(N3)C2=O)C(C)C)C1 [Example A7]	100 to 1000	< 5000	–
C=CC(=O)N1CC[C@H](C(=O)N(C)[C@H](C(=O)N[C@H]2Cc3cc(OC(=O)CN)cc(c3)-c3ccc4c(c3)c(c(-c3ccccc3CCOC)n4CC)CC(C)(C)COC(=O)[C@@H]3CCCN(N3)C2=O)C(C)C)C1 [Example A8]	100 to 1000	< 5000	–
C=CC(=O)N1CC[C@H](C(=O)N(C)[C@H](C(=O)N[C@H]2Cc3cc(cc(O)c3F)-c3ccc4c(c3)c(c(-c3ccccc3CCOC)n4CC)CC(C)(C)COC(=O)[C@@H]3CCCN(N3)C2=O)C(C)C)C1 [Example A9]	100 to 1000	< 5000	–
C=CC(=O)N1CC[C@H](C(=O)N(C)[C@H](C(=O)N[C@H]2Cc3cc(O)cc(c3)-c3ccc4c(c3)c(c(-c3ccc(CN5CCCC5)cc3)n4CC)CC(C)(C)COC(=O)[C@@H]3CCCN(N3)C2=O)C(C)C)C1 [Example A10]	10 to 100	< 5000	–
C=CC(=O)N1CCC(F)(C(=O)N(C)[C@H](C(=O)N[C@H]2Cc3cc(O)cc(c3)-c3ccc4c(c3)c(c(-c3ccccc3CCOC)n4CC)CC(C)(C)COC(=O)[C@@H]3CCCN(N3)C2=O)C(C)C)CC1 [Example A11]	100 to 1000	< 5000	–
C=CC(=O)N1CCCN(C(=O)N(C)[C@H](C(=O)N[C@H]2Cc3cc(O)cc(c3)-c3ccc4c(c3)c(c(-c3ccccc3CCOC)n4CC)CC(C)(C)COC(=O)[C@@H]3CCCN(N3)C2=O)C(C)C)CC1 [Example A13]	100 to 1000	< 5000	–
C=CC(=O)N1CCC(C(=O)N(C)[C@H](C(=O)N[C@H]2Cc3cc(O)cc(c3)-c3ccc4c(c3)c(c(-c3ccccc3CCOC)n4CC)CC(C)(C)COC(=O)[C@@H]3CCCN(N3)C2=O)C(C)C)CC1 [Example A14]	100 to 1000	< 5000	–
CCn1c(-c2ccccc2CN(C)C)c2c3cc(ccc31)-c1cc(O)cc(c1)C[C@H](NC(=O)[C@H](C(C)C)N(C)C(=O)c1ccc(NC(=O)/C=C/CN(C)C)cc1)C(=O)N1CCC[C@H](N1)C(=O)OCC(C)(C)C2 [Example A49]	> 1000	–	–
CCn1c(-c2cccnc2COC)c2c3cc(ccc31)-c1cc(O)cc(c1)C[C@H](NC(=O)[C@H](C(C)C)N(C)C(=O)[C@H]1CCN(C(=O)/C=C/CN3CCN(C)CC3)C1)C(=O)N1CCC[C@H](N1)C(=O)OCC(C)(C)C2 [Example A72]	> 1000	–	–
CCn1c(-c2ccccc2CN(C)C)c2c3cc(ccc31)-c1cc(O)cc(c1)C[C@H](NC(=O)[C@H](C(C)C)N(C)C(=O)c1nc(NC(=O)/C=C/CN(C)C)cs1)C(=O)N1CCC[C@H](N1)C(=O)OCC(C)(C)C2 [Example A90]	> 1000	–	–
C=CC(=O)N1CC[C@H](C(=O)N(C)[C@H](C(=O)NC2C[C@@H]3CN(CCO3)c3ccc4c(c3)c(c(-c3cccnc3COC)n4CC)CC(C)(C)COC(=O)[C@@H]3CCCN(N3)C2=O)C(C)C)C1 (stereo partly drawn) [Example A318]	–	–	IC50 (NCI-H358 (K-Ras G12C)): > 1000 nM; IC50 (KRAS G12D): > 10000 nM; IC50 (KRAS G12S): > 10000 nM
